Measured values taken from ChEMBL document CHEMBL1268830, “Efficient synthesis and biological evaluation of some 2,4-diamino-furo[2,3-d]pyrimidine derivatives” (Bioorg Med Chem Lett, 2010).

Columns and labels:
A549 = experiment: Cytotoxicity against human A549 cells after 48 hrs by MTT assay; format: functional, cell-based; conditions: A549, 48 h
[1] = Cytotoxicity against human sSPC-A1 cells after 48 hrs by MTT assay; format: functional, cell-based; conditions: sSPC-A1, 48 h

| Structure (SMILES) | IC50 (A549) [µM] | IC50 [1] [µM] |
| --- | --- | --- |
| CCCCNc1nc(Nc2cccc(C)c2)nc2oc(C)c(C(=O)OCC)c12 | 9 | – |
| CCOC(=O)c1c(C)oc2nc(Nc3cccc(C)c3)nc(N(CC)CC)c12 | 8.8 | – |
| CCOC(=O)c1c(C)oc2nc(Nc3ccccc3)nc(NCCO)c12 | 13 | 24.2 |
| CCOC(=O)c1c(C)oc2nc(Nc3cccc(C)c3)nc(N3CCN(C)CC3)c12 | 5.5 | 18.2 |
| CCOC(=O)c1c(C)oc2nc(Nc3ccccc3)nc(NC(C)C)c12 | 21.5 | – |
| CCOC(=O)c1c(C)oc2nc(Nc3cccc(C)c3)nc(N3CCOCC3)c12 | 14 | 70.8 |
| CCOC(=O)c1c(C)oc2nc(Nc3cccc(C)c3)nc(NC(C)C)c12 | 8.6 | 46.3 |
| CCCCNc1nc(Nc2ccccc2)nc2oc(C)c(C(=O)OCC)c12 | 2.7 | 50.2 |
| CCOC(=O)c1c(C)oc2nc(Nc3ccccc3)nc(N3CCOCC3)c12 | 15.2 | 69 |
| CCOC(=O)c1c(C)oc2nc(Nc3ccccc3)nc(N3CCN(C)CC3)c12 | 0.8 | 26.1 |
